Test results from PubChem BioAssay (NCI).
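Cells were grown in 96-well plates and exposed to each compound for 48 hours at five concentrations; endpoints were interpolated linearly between bracketing concentrations, or set to the highest concentration if not reached. GI50 marks 50% less growth. TGI is the concentration that stops growth completely.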

Legend:
Test in all cases: NCI-60 cell line screen, 48 h
[1] = tested on: SK-MEL-5 melanoma
[2] = tested on: PC-3 prostate
[3] = tested on: OVCAR-4 ovarian
[4] = tested on: MALME-3M melanoma
[5] = tested on: SNB-19 CNS
[6] = tested on: OVCAR-8 ovarian
[7] = tested on: DU-145 prostate
[8] = tested on: RPMI-8226 leukemia
[9] = tested on: SF-295 CNS
[10] = tested on: MCF7 breast
[11] = tested on: SK-MEL-2 melanoma
[12] = tested on: A549 NSCLC
[13] = tested on: LOX IMVI melanoma
[14] = tested on: HOP-92 NSCLC
[15] = tested on: HT29 colon
[16] = tested on: ACHN renal
[17] = tested on: NCI-H226 lung
[18] = tested on: UO-31 renal
[19] = tested on: U251 CNS
[20] = tested on: SK-OV-3 ovarian
[21] = tested on: SF-268 CNS
[22] = tested on: SR leukemia
[23] = tested on: MOLT-4 leukemia
[24] = tested on: HS 578T breast
[25] = tested on: SN12C renal
[26] = tested on: OVCAR-3 ovarian
[27] = tested on: A498 renal
[28] = tested on: NCI-H23 lung
[29] = tested on: MDA-MB-231 breast

Work on `CCOC(=O)c1ccc(NC(=O)Nc2nncs2)cc1` yielded a TGI [1] of 5.16 µM, a GI50 [2] of 273 nM and a TGI [2] of 24.2 µM. It also gave a GI50 [3] of 916 nM, a TGI [3] of 21.5 µM and a GI50 [4] of 132 nM. The TGI [4] was 36.1 µM, the GI50 [5] was 456 nM and the TGI [5] was greater than 61.1 µM. It also gave a GI50 [6] of 371 nM, a TGI [6] of 13.5 µM and a GI50 [7] of 309 nM. For the same compound, the TGI [7] was 4.11 µM, the GI50 [8] was 499 nM and the TGI [8] was 10.2 µM. For the same compound, the GI50 [9] was 262 nM, the TGI [9] was 988 nM and the GI50 [10] was 116 nM. It also gave a TGI [10] greater than 32.9 µM, a GI50 [11] of 734 nM and a TGI [11] of 24 µM. It also gave a GI50 [12] of 410 nM, a TGI [12] of 26.1 µM and a GI50 [13] of 485 nM. It also gave a TGI [13] of 7.67 µM, a TGI [14] of 947 nM and a GI50 [15] of 189 nM. For the same compound, the TGI [15] was 10.9 µM, the GI50 [16] was 1240 nM and the TGI [16] was 23.9 µM. For the same compound, the GI50 [17] was 1090 nM, the TGI [17] was 19.5 µM and the GI50 [18] was 1480 nM. The TGI [18] was 28.7 µM, the GI50 [19] was 250 nM and the TGI [19] was 12.7 µM. It also gave a GI50 [20] of 178 nM, a TGI [20] of 3.11 µM and a GI50 [21] of 952 nM. It also gave a TGI [21] of 22.9 µM, a GI50 [22] of 52.7 nM and a TGI [22] of 24.3 µM. The GI50 [23] was 384 nM, the TGI [23] was greater than 48.7 µM and the GI50 [24] was 297 nM. For the same compound, the TGI [24] was 47.4 µM, the GI50 [25] was 662 nM and the TGI [25] was 16.1 µM. For the same compound, the GI50 [26] was 96.3 nM, the TGI [26] was 415 nM and the GI50 [27] was 230 nM. The TGI [27] was 978 nM, the GI50 [28] was 649 nM and the TGI [28] was 12.1 µM. For the same compound, the GI50 [29] was 532 nM and the TGI [29] was 6.35 µM.
